Usually melting point stands for the temperature of the solid-liquid transition. By Ki is commonly meant a dissociation constant, usually derived from enzyme kinetics or from competition with a known ligand.

From patent US9034877B2 (Wayne State University, priority 2009, dated 2015) come the findings set out here.

SMILES strings stand for the structures. Where a name gives a salt, the structure may show the parent alone.

For one series, the target named is T1, D3 receptor (Rattus norvegicus, UniProt P19020).
T1 construct: expressed in transfected cells
Description: Inhibition of [3H]spiperone binding to cloned D3 receptors expressed in HEK-293 cells. The note with it: for Ki: [3H]spiperone, rat D3 in HEK-293 cells.

For another series, the target named is T2, hD3 receptor (Homo sapiens, UniProt P35462).
T2 construct: expressed in transfected cells; host or cells: CHO
Description: Stimulation of [35S]GTPγS binding, hD3 receptor expressed in CHO cells. The class given is biochemical. For orientation: GTPγS is a poorly hydrolysed GTP analogue; its binding reports G protein activation.

Another series deals with T3, D2L receptor (Rattus norvegicus, UniProt P61169).
T3 construct: expressed in transfected cells
Description: Inhibition of [3H]spiperone binding to cloned D2L receptors expressed in HEK-293 cells. As to conditions: rat D2L in HEK-293 cells, read-out: Ki, D2 receptor.

For the next series, the system named is 6-OHDA lesioned rats. Description: Rotational experiment with 6-OHDA unilaterally lesioned rats. The class given is in vivo, rat. The note with it: 0.05 mg/kg, 21 days post lesion, recorded for 30 min.

T3 sequence (P61169 whole entry): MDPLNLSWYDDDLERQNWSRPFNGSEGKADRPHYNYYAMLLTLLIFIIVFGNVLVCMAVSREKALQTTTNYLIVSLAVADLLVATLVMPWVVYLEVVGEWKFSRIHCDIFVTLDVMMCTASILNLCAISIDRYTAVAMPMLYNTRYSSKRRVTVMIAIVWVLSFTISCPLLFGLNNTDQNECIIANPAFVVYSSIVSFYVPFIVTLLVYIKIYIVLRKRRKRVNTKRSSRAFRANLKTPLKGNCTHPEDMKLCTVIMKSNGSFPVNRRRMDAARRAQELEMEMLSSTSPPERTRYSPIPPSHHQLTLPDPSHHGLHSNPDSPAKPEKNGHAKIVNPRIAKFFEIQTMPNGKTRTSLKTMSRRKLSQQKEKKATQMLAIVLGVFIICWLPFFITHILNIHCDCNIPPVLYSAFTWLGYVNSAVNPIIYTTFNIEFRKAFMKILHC
T1 sequence (P19020 whole entry): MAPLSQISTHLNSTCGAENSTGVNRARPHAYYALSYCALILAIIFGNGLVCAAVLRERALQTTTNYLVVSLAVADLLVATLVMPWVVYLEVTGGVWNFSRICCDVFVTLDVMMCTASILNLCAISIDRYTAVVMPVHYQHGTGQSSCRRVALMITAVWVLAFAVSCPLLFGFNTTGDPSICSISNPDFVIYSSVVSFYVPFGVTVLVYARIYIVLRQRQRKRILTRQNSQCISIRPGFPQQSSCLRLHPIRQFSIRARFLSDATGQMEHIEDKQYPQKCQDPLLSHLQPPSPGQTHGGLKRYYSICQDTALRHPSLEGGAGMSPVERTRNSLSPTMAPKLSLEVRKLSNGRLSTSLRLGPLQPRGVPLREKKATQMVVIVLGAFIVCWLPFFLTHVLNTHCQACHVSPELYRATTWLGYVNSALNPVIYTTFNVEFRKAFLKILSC
T2 sequence (P35462 whole entry): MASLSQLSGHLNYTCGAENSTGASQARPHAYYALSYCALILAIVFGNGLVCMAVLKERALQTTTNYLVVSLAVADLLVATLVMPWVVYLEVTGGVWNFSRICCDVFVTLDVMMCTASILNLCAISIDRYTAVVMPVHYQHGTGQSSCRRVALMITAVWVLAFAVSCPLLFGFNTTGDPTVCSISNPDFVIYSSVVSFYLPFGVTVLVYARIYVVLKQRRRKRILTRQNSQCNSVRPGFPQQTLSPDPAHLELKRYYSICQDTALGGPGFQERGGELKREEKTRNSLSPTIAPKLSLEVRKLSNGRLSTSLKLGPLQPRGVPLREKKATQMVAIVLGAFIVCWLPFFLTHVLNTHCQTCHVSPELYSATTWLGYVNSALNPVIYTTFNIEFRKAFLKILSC

The compound `CCCN(CCN1CCN(C(=O)c2cc3ccccc3[nH]2)CC1)C1CCc2ccc(O)cc2C1` (stereo not drawn) (as salt: HCl) [Compound 40c, (4-{2-[(7-Hydroxy-1,2,3,4-tetrahydro-naphthalen-2-yl)-propyl-amino]-ethyl}-piperazin-1-yl)-(1H-indol-2-yl)-methanone] registered a melting point of 203 to 205 °C. Turning to `CCCN(CCN1CCN(C(=O)c2c[nH]c3ccccc23)CC1)C1CCc2c(O)cccc2C1` (stereo not drawn) (as salt: HCl) [Compound 40f, (4-{2-[(5-Hydroxy-1,2,3,4-tetrahydro-naphthalen-2-yl)-propyl-amino]-ethyl}-piperazin-1-yl)-(1H-indol-3-yl)-methanone], the melting point lay in the range of 147 to 151 °C. On the same count and under the same terms, in the case of `CCCN(CCN1CCN(C(=O)c2n[nH]c3ccccc23)CC1)C1CCc2c(O)cccc2C1` (stereo not drawn) (as salt: HCl) [Compound 40g, (4-{2-[(5-Hydroxy-1,2,3,4-tetrahydro-naphthalen-2-yl)-propyl-amino]-ethyl}-piperazin-1-yl)-(1H-indazol-3-yl)-methanone] it was 167 to 170 °C; in that of `CCCN(CCN1CCN(C(=O)c2cc3ccccc3s2)CC1)C1CCc2c(O)cccc2C1` (stereo not drawn) (as salt: HCl) [Compound 40i, Benzo[b]thiophen-2-yl-(4-{2-[(5-hydroxy-1,2,3,4-tetrahydro-naphthalen-2-yl)-propyl-amino]-ethyl}-piperazin-1-yl)-methanone], 131 to 134 °C.

Consider `CCCN(CCN1CCN(C(=O)c2cnc3ccccc3c2)CC1)C1CCc2c(O)cccc2C1` (stereo not drawn) (as salt: HCl) [Compound 40j, (4-{2-[(5-Hydroxy-1,2,3,4-tetrahydro-naphthalen-2-yl)-propyl-amino]-ethyl}-piperazin-1-yl)-quinolin-3-yl-methanone], for which the melting point was in the range of 142 to 146 °C.

With `CCCN(CCN1CCN(Cc2ccc(O)c3ncccc23)CC1)C1CCc2c(O)cccc2C1` (stereo not drawn) (as salt: hydrochloride) [Compound 12b, 5-((4-(2-((5-hydroxy-1,2,3,4-tetrahydronaphthalen-2-yl)(propyl)amino)ethyl)piperazin-1-yl)methyl)quinolin-8-ol], the melting point fell in the range of 252 to 255 °C. Same read-out and setting: in the case of `CCCN(CCN1CCN(Cc2ccc3[nH]ccc3c2)CC1)C1CCc2ccc(O)cc2C1` (stereo not drawn) (as salt: oxalate) [Compound 40b, 7-({2-[4-(1H-Indol-5-ylmethyl)-piperazin-1-yl]-ethyl}-propyl-amino)-5,6,7,8-tetrahydro-naphthalen-2-ol] it was 198 to 203 °C; in that of `CCCN(CCN1CCN(Cc2cc3ccccc3[nH]2)CC1)C1CCc2ccc(O)cc2C1` (stereo not drawn) (as salt: oxalate) [Compound 40d, 7-({2-[4-(1H-Indol-2-ylmethyl)-piperazin-1-yl]-ethyl}-propyl-amino)-5,6,7,8-tetrahydro-naphthalen-2-ol], 135 to 137 °C. On the same count and under the same terms, in the case of `CCCN(CCN1CCN(c2ccc3[nH]ccc3c2)CC1)C1CCc2ccc(O)cc2C1` (stereo not drawn) (as salt: oxalate) [Compound 52, 7-((2-(4-(1H-indol-5-yl)piperazin-1-yl)ethyl)(propyl)amino)-5,6,7,8-tetrahydro-naphthalen-2-ol] it was 179 to 183 °C.

The compound `CCCN(CCN1CCN(C(=O)c2cc3ccccc3[nH]2)CC1)C1CCc2c(O)cccc2C1` (racemic) [Compound 40e, (4-{2-[(5-Hydroxy-1,2,3,4-tetrahydro-naphthalen-2-yl)-propyl-amino]-ethyl}-piperazin-1-yl)-(1H-indol-2-yl)-methanone] gave an inhibition constant Ki at D3 receptor of 0.55 nM. Compound `CCCN(CCN1CCN(C(=O)c2cc3ccccc3[nH]2)CC1)C1CCc2c(O)cccc2C1` (single isomer, unassigned; (+)) (as salt: HCl) [Compound (+)-40e, (+)-(4-{2-[(5-Hydroxy-1,2,3,4-tetrahydro-naphthalen-2-yl)-propyl-amino]-ethyl}-piperazin-1-yl)-(1H-indol-2-yl)-methanone] yielded a melting point of 169 to 170 °C. Compound `CCCN(CCN1CCN(c2ccnc3c(O)cccc23)CC1)C1CCc2c(O)cccc2C1` (single isomer, unassigned; (+)) (as salt: hydrochloride) [(+)19b, (+)-4-(4-(2-((5-hydroxy-1,2,3,4-tetrahydronaphthalen-2-yl) (propyl)amino)ethyl)piperazin-1-yl)quinolin-8-ol] returned a melting point of 230 to 232 °C. Turning to `CCCN(CCN1CCN(c2ccnc3c(O)cccc23)CC1)C1CCc2ccc(O)cc2C1` (single isomer, unassigned; (+)) [(+)19a, (+)-4-(4-(2-((7-hydroxy-1,2,3,4-tetrahydronaphthalen-2-yl) (propyl)amino)ethyl)piperazin-1-yl)quinolin-8-ol], the “Agonism at D3 compared with dopamine” value at hD3 receptor is listed as “full or near-complete agonism”. The compound `CCCN(CCN1CCN(C(=O)c2cc3ccccc3[nH]2)CC1)C1CCc2c(O)cccc2C1` (single isomer, unassigned; (-)) (as salt: HCl) [Compound (−)-40e, (−)-(4-{2-[(5-Hydroxy-1,2,3,4-tetrahydro-naphthalen-2-yl)-propyl-amino]-ethyl}-piperazin-1-yl)-(1H-indol-2-yl)-methanone] gave a melting point of 168 to 169 °C. Same read-out and setting: the result for `CCCN(CCN1CCN(c2ccnc3c(O)cccc23)CC1)C1CCc2c(O)cccc2C1` (single isomer, unassigned; (-)) (as salt: hydrochloride) [Compound (−)19b, (−)-4-(4-(2-((5-hydroxy-1,2,3,4-tetrahydronaphthalen-2-yl) (propyl)amino)ethyl)piperazin-1-yl)quinolin-8-ol] reads 237 to 240 °C. Turning to `CCCN(CCN1CCN(Cc2ccc(O)c3ncccc23)CC1)C1CCc2ccc(O)cc2C1` (stereo not drawn) [Compound 12a, 5-((4-(2-((7-hydroxy-1,2,3,4-tetrahydronaphthalen-2-yl)(propyl)amino)ethyl)piperazin-1-yl)methyl) quinolin-8-ol], the Ki on D3 receptor was determined as 5.57 nM; at D2L receptor it was 86 nM. In turn, `CCCN(CCN1CCN(Cc2ccc(O)c3ncccc23)CC1)C1CCc2c(O)cccc2C1` (stereo not drawn) [Compound 12b, 5-((4-(2-((5-hydroxy-1,2,3,4-tetrahydronaphthalen-2-yl)(propyl)amino)ethyl)piperazin-1-yl)methyl)quinolin-8-ol] showed an inhibition constant Ki at D3 receptor of 3.71 nM. The same measure, in the same setting: the result for `CCCN(CCN1CCN(c2ccnc3c(O)cccc23)CC1)C1CCc2c(O)cccc2C1` (stereo not drawn) [Compound 19b] reads 1.35 nM. Turning to `CCCN(CCN1CCN(Cc2ccc3[nH]ccc3c2)CC1)C1CCc2ccc(O)cc2C1` (stereo not drawn) [Compound 40b, 7-({2-[4-(1H-Indol-5-ylmethyl)-piperazin-1-yl]-ethyl}-propyl-amino)-5,6,7,8-tetrahydro-naphthalen-2-ol], the Ki came out at 3.87 nM on D3 receptor and 144 nM on D2L receptor. Take `CCCN(CCN1CCN(C(=O)c2cc3ccccc3[nH]2)CC1)C1CCc2ccc(O)cc2C1` (stereo not drawn) [Compound 40c, (4-{2-[(7-Hydroxy-1,2,3,4-tetrahydro-naphthalen-2-yl)-propyl-amino]-ethyl}-piperazin-1-yl)-(1H-indol-2-yl)-methanone]: the “D2/D3 (Ki ratio, binding selectivity)” value on D3 receptor (Ki D2 / Ki D3) is reported as 31. For the same compound, the Ki at D3 receptor was 3.72 nM; on D2L receptor, 116 nM. In the case of `CCCN(CCN1CCN(C(=O)c2c[nH]c3ccccc23)CC1)C1CCc2c(O)cccc2C1` (stereo not drawn) [Compound 40f, (4-{2-[(5-Hydroxy-1,2,3,4-tetrahydro-naphthalen-2-yl)-propyl-amino]-ethyl}-piperazin-1-yl)-(1H-indol-3-yl)-methanone], the Ki on D3 receptor was determined as 3.62 nM; on D2L receptor, 58.9 nM.

For the compound `CCCN(CCN1CCN(C(=O)c2n[nH]c3ccccc23)CC1)C1CCc2c(O)cccc2C1` (stereo not drawn) [Compound 40g, (4-{2-[(5-Hydroxy-1,2,3,4-tetrahydro-naphthalen-2-yl)-propyl-amino]-ethyl}-piperazin-1-yl)-(1H-indazol-3-yl)-methanone], the values for the Ki on D3 receptor and at D2L receptor were 2.83 nM and 28 nM, respectively. The corresponding values for `CCCN(CCN1CCN(C(=O)c2cc3ccccc3s2)CC1)C1CCc2c(O)cccc2C1` (stereo not drawn) [Compound 40i, Benzo[b]thiophen-2-yl-(4-{2-[(5-hydroxy-1,2,3,4-tetrahydro-naphthalen-2-yl)-propyl-amino]-ethyl}-piperazin-1-yl)-methanone] are 1.69 nM and 76.9 nM. For `CCCN(CCN1CCN(C(=O)c2cnc3ccccc3c2)CC1)C1CCc2c(O)cccc2C1` (stereo not drawn) [Compound 40j, (4-{2-[(5-Hydroxy-1,2,3,4-tetrahydro-naphthalen-2-yl)-propyl-amino]-ethyl}-piperazin-1-yl)-quinolin-3-yl-methanone], the Ki at D2L receptor is 158 nM. With `CCCN(CCN1CCN(c2ccc3[nH]ccc3c2)CC1)C1CCc2ccc(O)cc2C1` (stereo not drawn) [Compound 52, 7-((2-(4-(1H-indol-5-yl)piperazin-1-yl)ethyl)(propyl)amino)-5,6,7,8-tetrahydro-naphthalen-2-ol], the figures for the inhibitory constant (Ki) on D3 receptor and on D2L receptor were 2 nM and 30 nM, respectively.

Regarding `CCCN(CCN1CCN(C(=O)c2ccc3[nH]ccc3c2)CC1)[C@H]1CCc2c(O)cccc2C1` [Compound (−)-45, (S)-(4-{2-[(5-Hydroxy-1,2,3,4-tetrahydro-naphthalen-2-yl)-propyl-amino]-ethyl}-piperazin-1-yl)-(1H-indol-5-yl)-methanone], the results for the Ki on D3 receptor and on D2L receptor were 2.27 nM and 157 nM, respectively. In turn, `CN1CCc2cccc3c2[C@H]1Cc1ccc(O)c(O)c1-3` [apomorphine] gave an Average contralateral rotation in the series with 6-OHDA lesioned rats above 250.
